Measured values from patent US20260258064A1 (SIRONAX LTD., priority 2023, published 2026).

Target: T1, SARM1 (50-724) (Homo sapiens, UniProt Q6SZW1)
T1 construct: Purified SARM1 (50-724) with a final concentration of 2 nM was pre-incubated with a test compound
T1 sequence (Q6SZW1 50-724): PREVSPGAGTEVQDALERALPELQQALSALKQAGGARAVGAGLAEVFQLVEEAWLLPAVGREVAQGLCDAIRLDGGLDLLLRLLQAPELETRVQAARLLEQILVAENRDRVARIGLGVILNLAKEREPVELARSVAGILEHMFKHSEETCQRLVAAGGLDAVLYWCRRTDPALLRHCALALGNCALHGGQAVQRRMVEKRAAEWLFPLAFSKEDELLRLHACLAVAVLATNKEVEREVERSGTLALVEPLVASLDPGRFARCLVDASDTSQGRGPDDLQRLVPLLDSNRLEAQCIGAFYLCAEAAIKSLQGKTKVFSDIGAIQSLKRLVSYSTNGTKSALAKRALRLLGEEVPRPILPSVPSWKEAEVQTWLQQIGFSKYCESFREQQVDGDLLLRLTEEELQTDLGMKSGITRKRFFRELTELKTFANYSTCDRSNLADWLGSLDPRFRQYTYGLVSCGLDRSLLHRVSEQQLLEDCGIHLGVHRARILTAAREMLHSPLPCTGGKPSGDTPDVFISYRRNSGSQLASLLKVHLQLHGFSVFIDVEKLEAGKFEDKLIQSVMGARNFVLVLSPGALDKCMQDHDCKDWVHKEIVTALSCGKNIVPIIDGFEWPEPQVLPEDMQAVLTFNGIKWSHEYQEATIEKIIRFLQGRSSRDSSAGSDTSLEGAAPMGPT
Test: SARM1 (50-724) enzymatic assay (LC-MS/MS)
Type: biochemical
Settings: Purified SARM1 (50-724) 2 nM, NMN as activator, NAD+ as substrate, 1 h at room temperature, read-out: IC50 (SARM1 inhibitory activity)
Procedure: An enzymatic assay was performed in a 384-well plate using Dulbecco's phosphate-buffered saline (PBS) as the reaction buffer. Purified SARM1 (50-724) with a final concentration of 2 nM was pre-incubated with a test compound at […] final assay concentration for 15 min at room temperature. The reaction was initiated by adding a mixture of […] nicotinamide mononucleotide (NMN) as activator and […] NAD^+ as substrate. After 1 h of incubation at room temperature, the reaction was terminated with 10 times volume of 70% acetonitrile, and then centrifuged at 3800 rpm for 10 min. The samples were analyzed using LC-MS/MS after diluted to a proper concentration by 10 mM ammonium acetate (pH 9.75).
In Table 2, activity is provided as follows: A: IC50≤100 nM; B: 100 nM<IC50≤500 nM; C: 500 nM<IC50≤1000 nM; D: IC50>1000 nM.

IC50 | Structure (SMILES)
100 to 500 nM | Cn1cc(-c2cccc(F)c2Cl)c(-c2nc3cc(CC(N)=O)ccc3[nH]2)cc1=O [Compound 179, 2-(2-(5-(2-chloro-3-fluorophenyl)-1-methyl-2-oxo-1,2-dihydropyridin-4-yl)-1H-benzo[d]imidazol-5-yl)acetamide]
≤ 100 nM | Fc1cc(C(F)F)cc2nc(-c3nncn3-c3cnccc3C(F)(F)F)[nH]c12 [Compound 467, 6-(difluoromethyl)-4-fluoro-2-(4-(4-(trifluoromethyl)pyridin-3-yl)-4H-1,2,4-triazol-3-yl)-1H-benzo[d]imidazole]
≤ 100 nM | CS(=O)(=O)Cc1cccc(OC(F)(F)F)c1-n1cnnc1-c1nc2cc(C(F)(F)F)ccc2[nH]1 [Compound 289, 2-(4-(2-((methylsulfonyl)methyl)-6-(trifluoromethoxy)phenyl)-4H-1,2,4-triazol-3-yl)-5-(trifluoromethyl)-1H-benzo[d]imidazole]
500 to 1000 nM | O=C1CCCN1Cc1nnc(-c2nc3cc(C(F)(F)F)ccc3[nH]2)n1-c1cccc(F)c1Cl [Compound 384, 1-((4-(2-chloro-3-fluorophenyl)-5-(5-(trifluoromethyl)-1H-benzo[d]imidazol-2-yl)-4H-1,2,4-triazol-3-yl)methyl)pyrrolidin-2-one]
100 to 500 nM | Fc1cccc(-n2nccc2-c2nc3cc(C(F)(F)F)ccc3[nH]2)c1Cl [Compound 443, 2-(1-(2-chloro-3-fluorophenyl)-1H-pyrazol-5-yl)-5-(trifluoromethyl)-1H-benzo[d]imidazole]
≤ 100 nM | N#CC1(c2ccc3[nH]c(-c4nncn4-c4cccc(F)c4Cl)nc3c2)CC12CC2 (stereo not shown) [Compound 229, 1-(2-(4-(2-chloro-3-fluorophenyl)-4H-1,2,4-triazol-3-yl)-1H-benzo[d]imidazol-5-yl)spiro[2.2]pentane-1-carbonitrile]
≤ 100 nM | CON(C)Cc1nnc(-c2nc3cc(C(F)(F)F)ccc3[nH]2)n1-c1cccc(F)c1Cl [Compound 382, N-((4-(2-chloro-3-fluorophenyl)-5-(5-(trifluoromethyl)-1H-benzo[d]imidazol-2-yl)-4H-1,2,4-triazol-3-yl)methyl)-N,O-dimethylhydroxylamine]
≤ 100 nM | Fc1cc(C2CC23CC3)cc2nc(-c3nncn3-c3cnccc3C(F)(F)F)[nH]c12 (stereo not shown) [Compound 338, 7-fluoro-5-spiro[2.2]pentan-2-yl-2-[4-[4-(trifluoromethyl)-3-pyridyl]-1,2,4-triazol-3-yl]-1H-benzimidazole]
> 1000 nM | FC(F)(F)c1ccc2[nH]c(C3CSCCN3c3ccccc3)nc2c1 (stereo not shown) [Compound 361, 4-phenyl-3-[5-(trifluoromethyl)-1H-benzimidazol-2-yl]thiomorpholine]
≤ 100 nM | CC(C)Oc1ccc2[nH]c(-c3nncn3-c3cccc(Cl)c3Cl)nc2c1 [compound 109]
≤ 100 nM | CCC(c1ccc2[nH]c(-c3nncn3-c3ccncc3OC(F)(F)F)nc2c1)C(F)F (stereo not shown) [Compound 238, 5-(1,1-difluorobutan-2-yl)-2-(4-(3-(trifluoromethoxy)pyridin-4-yl)-4H-1,2,4-triazol-3-yl)-1H-benzo[d]imidazole]
> 1000 nM | N#Cc1c(Cl)cccc1-n1cnnc1-c1nc2cc(C(F)(F)F)ccc2[nH]1 [Example 91]
500 to 1000 nM | FC(F)(F)c1ccc2[nH]c(N3CCC3c3ccccc3)nc2c1 (stereo not shown) [Compound 344, 2-(2-phenylazetidin-1-yl)-5-(trifluoromethyl)-1H-benzo[d]imidazole]
> 1000 nM | FC(F)(F)c1ccncc1-n1cnnc1-c1nc2c(-c3cccnc3)c(Cl)ccc2[nH]1 [Compound 334, 6-chloro-7-(pyridin-3-yl)-2-(4-(4-(trifluoromethyl)pyridin-3-yl)-4H-1,2,4-triazol-3-yl)-1H-benzo[d]imidazole]
≤ 100 nM | COC(C)c1ccc2[nH]c(-c3nncn3-c3ccc(F)c(F)c3Cl)nc2c1 (stereo not shown) [Compound 155, 2-(4-(2-chloro-3,4-difluorophenyl)-4H-1,2,4-triazol-3-yl)-5-(1-methoxyethyl)-1H-benzo[d]imidazole]
≤ 100 nM | OCCOc1cc(-n2cnnc2-c2cc3cc(C(F)(F)F)cc(F)c3[nH]2)c(OC(F)(F)F)cn1 [Compound 411, 2-((4-(3-(7-fluoro-5-(trifluoromethyl)-1H-indol-2-yl)-4H-1,2,4-triazol-4-yl)-5-(trifluoromethoxy)pyridin-2-yl)oxy)ethanol]

IC50 | Structure (SMILES)
≤ 100 nM | COc1ccc(Cl)c(-n2cnnc2-c2nc3cc(C(F)(F)F)ccc3[nH]2)n1 [Example 114]
≤ 100 nM | Fc1c(CC(F)F)cc(F)c2[nH]c(-c3nncn3-c3cnccc3C(F)(F)F)nc12 [Compound 329, 5-(2,2-difluoroethyl)-4,7-difluoro-2-[4-[4-(trifluoromethyl)-3-pyridyl]-1,2,4-triazol-3-yl]-1H-benzimidazole]
≤ 100 nM | CC1CC(c2cc(F)c3[nH]c(-c4nncn4-c4cnccc4C(F)(F)F)nc3c2)CO1 (stereo not shown) [Compound 423, 7-fluoro-5-(5-methyltetrahydrofuran-3-yl)-2-[4-[4-(trifluoromethyl)-3-pyridyl]-1,2,4-triazol-3-yl]-1H-benzimidazole]
100 to 500 nM | NC(=O)c1nc(Cl)c(-n2cnnc2-c2nc3cc(C(F)(F)F)cc(F)c3[nH]2)s1 [Compound 216, 4-chloro-5-(3-(7-fluoro-5-(trifluoromethyl)-1H-benzo[d]imidazol-2-yl)-4H-1,2,4-triazol-4-yl)thiazole-2-carboxamide]
> 1000 nM | CS(=O)(=O)Cn1cc(-c2nc3cc(C(F)(F)F)ccc3[nH]2)c(-c2cccc(Cl)c2Cl)n1 [Compound 438, 2-(3-(2,3-dichlorophenyl)-1-((methylsulfonyl)methyl)-1H-pyrazol-4-yl)-5-(trifluoromethyl)-1H-benzo[d]imidazole]
500 to 1000 nM | Cc1ccc2[nH]c(-c3cc(C(N)=O)cn3C3CCCC3)nc2c1 [Compound 20, 1-cyclopentyl-5-(5-methyl-1H-benzo[d]imidazol-2-yl)-1H-pyrrole-3-carboxamide]
100 to 500 nM | Cc1cc(C(F)(F)F)c(-n2cnnc2-c2nc3cc(C(F)(F)F)ccc3[nH]2)nn1 [Compound 391, 2-(4-(6-methyl-4-(trifluoromethyl)pyridazin-3-yl)-4H-1,2,4-triazol-3-yl)-5-(trifluoromethyl)-1H-benzo[d]imidazole]
≤ 100 nM | Cc1cnc(-c2cc(F)c3[nH]c(-c4nncn4-c4cnccc4C(F)(F)F)nc3c2)s1 [Compound 409, 2-[7-fluoro-2-[4-[4-(trifluoromethyl)-3-pyridyl]-1,2,4-triazol-3-yl]-1H-benzimidazol-5-yl]-5-methyl-thiazole]
> 1000 nM | Cn1cc(-c2nc(Cl)c(Cl)s2)c(-c2nc3cc(C(F)(F)F)ccc3[nH]2)cc1=O [Compound 97]
> 1000 nM | O=S1(=O)CC(c2nc3cc(C(F)(F)F)ccc3[nH]2)=C(c2ccccc2Cl)C1 [Compound 337, 3-(2-chlorophenyl)-4-(5-(trifluoromethyl)-1H-benzo[d]imidazol-2-yl)-2,5-dihydrothiophene 1,1-dioxide]
≤ 100 nM | CN(CCC(N)=O)c1cc(F)c2[nH]c(-c3nncn3-c3cnccc3C(F)(F)F)nc2c1 [Compound 450, 3-((4-fluoro-2-(4-(4-(trifluoromethyl)pyridin-3-yl)-4H-1,2,4-triazol-3-yl)-1H-benzo[d]imidazol-6-yl)(methyl)amino)propanamide]
100 to 500 nM | NC(=O)c1ncc(-c2nc3cc(C(F)(F)F)ccc3[nH]2)n1-c1cccc(Cl)c1Cl [Example 89, 1-(2,3-dichlorophenyl)-5-(5-(trifluoromethyl)-1H-benzo[d]imidazol-2-yl)-1H-imidazole-2-carboxamide]
≤ 100 nM | Cc1ccc2[nH]c(-c3nncn3-c3cccc(Cl)c3Cl)nc2c1C [Example 93, 2-(4-(2,3-dichlorophenyl)-4H-1,2,4-triazol-3-yl)-4,5-dimethyl-1H-benzo[d]imidazole]
≤ 100 nM | FC(F)(F)c1ccc2[nH]c(-c3nncn3-c3cccc(Cl)c3Cl)nc2c1 [Example 15, 2-[4-(2,3-dichlorophenyl)-1,2,4-triazol-3-yl]-5-(trifluoromethyl)-1H-benzimidazole]
≤ 100 nM | FC(F)(F)c1ccc2[nH]c(-c3nncn3-c3cnccc3C(F)(F)F)cc2c1 [Compound 258, 5-(trifluoromethyl)-2-(4-(4-(trifluoromethyl)pyridin-3-yl)-4H-1,2,4-triazol-3-yl)-1H-indole]
